Measurements as given in publication PMC2360547 (British Journal of Cancer, 2006).

Legend:
[1] = test system: PKCα; set-up: method as in Fabbro et al, 2000; conditions: ref Fabbro et al, 2000; cited from earlier work
[2] = test system: acute myeloid leukaemia (AML); set-up: method as in Stone et al, 2005; conditions: ref Stone et al, 2005, cited from earlier work
[3] = test system: patients with metastatic melanoma; assay: Phase IIA clinical trial: safety and toxicity; assay type: in vivo, human
Description: Disease sites were re-evaluated by clinical examination monthly or CT every 2 months, or more frequently if disease progression was suspected.
It was planned to recruit 14 patients with disease suitable for biopsy as the first cohort. […] If at least one response occurred, a further 13 patients (not necessarily with disease suited for biopsy) would be recruited. Response and toxicity were assessed using WHO criteria.

[4] = set-up: method as in Novartis internal report; conditions: ref Novartis internal report; cited from earlier work

For `CO[C@@H]1[C@H](N(C)C(=O)c2ccccc2)C[C@H]2O[C@]1(C)n1c3ccccc3c3c4c(c5c6ccccc6n2c5c31)C(=O)NC4` [Midostaurin, N-benzoyl-staurosporine], the IC50 [1] is listed as 22 nM, the Tolerability ([2]; 225 mg day−1 in AML) is listed as “well-tolerated” and the “AML patients with a 50% reduction in bone marrow blast cells” value [2] is listed as 25%. For the same compound, the “AML patients with a 50% reduction of peripheral blood blast cells” value [2] was 70%, the Patients with anaemia ([3]; 17 patients) was 12 patients and the “Patients with anaemia reaching grade 2” value ([3]; 17 patients) was “five”. The “Patients requiring dose modification for nausea or vomiting” value ([3]; 17 patients, 75 mg p.o. t.i.d.) was “Two”, the Patients with hyperglycemia ([3]; 17 patients, one of Grade 2 severity) was “Four” and the “Patients with elevated liver enzymes (alanine transaminase or aspartate transaminase) possibly linked to therapy” value ([3]; 17 patients, only one reached grade 2) was “four”. For the same compound, the “Patients who discontinued owing to nausea, vomiting, diarrhoea and/or fatigue possibly related to study drug” value ([3]; seven out of 17 patients, 75 mg p.o. t.i.d.) was 41% and the Plasma protein binding [4] was 99%.
